Positions of bridges follow the written chain, without caps; N, C: chain ends. Residues, ends and D or L forms follow the SMILES beside them. Chains are numbered I, II in the order given. *: point of attachment. Docosanoyl = CCCCCCCCCCCCCCCCCCCCCC(=O)*; Arachidoyl = CCCCCCCCCCCCCCCCCCCC(=O)*
Experiments:
CHO-K1 cells = assay: Delivery of reporter mRNA with CPPs in cell culture (luciferase luminescence 24 h post-transfection); type: cell-based; details: for Average RLU/mg (reporter levels post-transfection of mRNA): firefly luciferase mRNA, 0.1 μg per well, charge ratio 3:1, serum containing media, 24 h, RLU normalised to total protein in lysate; for Efficiency of mRNA transfection/delivery: FIG. 1 / Table 2, cell culture; for Delivery of mRNA compared to NF55: comparator NF55
Description: FIG. 1: Delivery of reporter mRNA with CPPs in cell culture—evaluation of reporter levels post-transfection (relative light units normalised to total protein in the cell lysate (RLU/mg)). Naked mRNA treated cells were used as controls and Lipofectamine3000 (LF3000) was used to compare the transfection efficacy with a liposome-based transfection reagent.
Adherent CHO-K1 cells were grown in Dulbecco's Modified Eagle's Medium (DMEM), which were supplemented with 0.1 mM non-essential amino acids, 1.0 mM sodium pyruvate, 100 U/ml penicillin, and […]. For complete media, 10% (final) fetal bovine serum (FBS) was added. Cells were maintained in a humidified incubator at 37 °C, 5% CO2. Cell viability and confluence was assessed daily and the cell density was reduced regularly. For cell counting, we used the CytoSMART cell counter accompanied by 0.4% trypan blue staining prior measurement. The multi-well plates with cell cultures used for experiments were incubated in a humidified incubator at 37 °C, 5% CO2.
For in vitro experiments 0.1 μg of nucleic acid (plasmid DNA (pDNA) or mRNA) was used per 96-well plate well. For CPP/NA complex formation, the diluted NA was mixed with CPP in water. Complexes were formed based on the theoretical charge ratio (CR) of positive charges from the peptide in excess to the negative charges from nucleic acid backbone, at charge ratio 3:1 with peptide in excess. Commercial reagent Lipofectamine3000 (LF3000) was used according to the manufacturer's recommendations for the transfection of adherent cells.
For reporter luminescence (expressed from firefly luciferase encoding mRNA or plasmid pDNA) assessment in adherent cell culture, 10,000 cells per 96-well plate well were seeded in 100 μl of media one day prior to transfection. Shortly before transfection, cell media was replaced with 100 μl of serum containing (10% foetal bovine serum) DMEM media. CPPs and mRNA or pDNA were mixed at a charge ratio 3:1 in ultrapure water and incubated at room temperature before addition to cells in serum containing media. Cells were transfected with 0.1 μg of mLuc per well.
24 hours post-transfection, the media was aspirated, cells were washed with 1×PBS, and 30 μl of lysis buffer (0.1% Triton X100 in 1×PBS) was added. Cells were incubated with lysis buffer for 20 min. to lyse the cells. From the lysate, 20 μl was transferred to a black frame white well 96-well plate for luminescence measurement after addition of substrate luciferin (PerkinElmer) in buffer. The luminescence signal was detected with GloMax® 96 microplate luminometer equipped with GloMax® 1.9.2 software (Promega). RLU values were converted to RLU/mg by normalization to total protein in cell lysate, reflecting total number of cells. For protein detection, a Pierce™ BCA Protein Assay Kit was used.
The present inventors have previously reported CPPs developed from the NickFect (NF) and PepFect (PF) families for plasmid (pDNA), siRNA and miRNA delivery (see, e.g. WO 2020/144317, WO 2010/039088 and WO 2012/113846). With the emergence of mRNA-based therapeutics, it was decided to investigate peptides for their ability to deliver mRNA. It was assumed that CPPs that are efficient for siRNA and miRNA delivery, e.g. histidine containing CPPs (Porosk et. al. (2019)), may be good candidates for the delivery of mRNA. Therefore, CPPs from each main family (NF55-, PF14- and NF70-derived CPPs) were tested for mRNA delivery/transfection. Naked mRNA treated and untreated cells were used as control groups. LF3000 was used to compare the transfection efficacy of liposome-based transfection reagents with the CPPs (FIG. 1).

spleen of BALB/c mice = assay: In vivo delivery of mRNA with CPPs - reporter levels in the spleen; details: for Efficacy of mRNA delivery into the spleen in vivo: FIG. 5 / Table 5; for Reporter levels in the spleen (RLU): mRNA, tail vein injection, spleens harvested 16 hours after single injection, whole tissue homogenate
Description: FIG. 5: Delivery of mRNA with CPPs in vivo—reporter levels in the spleen. Spleens were harvested post mortem 16 hours post-injection. The reporter levels (RLU) were evaluated from the whole tissue homogenate.
The transfection complexes (CPP/mRNA) were formed using 10 μg of mRNA mixed with each peptide at indicated charge ratios (CRs) in MQ water in a final volume of 100 μl. CRs were calculated theoretically and account for both the positive charges of the peptide and negative charges of the nucleic acid. The transfection complexes (CPP/mRNA and CPP/pDNA) were formed using 50 μg of mRNA mixed with each peptide at indicated charge ratios (CRs) in MQ water in a final volume of 168 μl. The complexes were incubated for 30 minutes at room temperature and then mixed with equal volume of 10% glucose (resulting in a final solution of 5% glucose in a total volume of 200 μl for 10 μg dose groups and 336 μl for 50 μg dose groups) and immediately injected intravenously via the tail vein.
The reporter gene (luciferase) expression levels were evaluated from the tissue homogenate post mortem 16-24 h after single injection.
CPPs and mRNA complexes were injected through the tail vein of BALB/c mice, spleens were harvested 16 hours after the single injection and reporter signal was measured from the whole tissue homogenate (FIG. 5 and Table 5).

| Molecule | Average RLU/mg (reporter levels post-transfection of mRNA) (CHO-K1 cells) | Efficiency of mRNA transfection/delivery (CHO-K1 cells; in words) | Delivery of mRNA compared to NF55 (CHO-K1 cells; in words) | Efficacy of mRNA delivery into the spleen in vivo (spleen of BALB/c mice; in words) | Delivery of mRNA in vivo compared to NF54 and/or NF55 (spleen of BALB/c mice; in words, comparator NF54 and/or NF55) | Reporter levels in the spleen (RLU) (spleen of BALB/c mice) | Delivery of mRNA compared to NF54 (CHO-K1 cells; in words, comparator NF54) |
| --- | --- | --- | --- | --- | --- | --- | --- |
| CCCCCCCCCCCCCCCCCC(=O)N[C@@H](C)C(=O)NCC(=O)N[C@@H](Cc1ccc(O)cc1)C(=O)N[C@@H](CC(C)C)C(=O)N[C@@H](CC(C)C)C(=O)NCC(=O)NCCC[C@H](N)C(=O)N[C@H](C(=O)N[C@@H](CC(N)=O)C(=O)N[C@@H](CC(C)C)C(=O)N[C@@H](CCCCN)C(=O)N[C@@H](C)C(=O)N[C@@H](CC(C)C)C(=O)N[C@@H](C)C(=O)N[C@@H](C)C(=O)N[C@@H](CC(C)C)C(=O)N[C@@H](C)C(=O)N[C@@H](C)C(=O)N[C@@H](CCCCN)C(=O)N[C@H](C(=O)N[C@@H](CC(C)C)C(N)=O)[C@@H](C)CC)[C@@H](C)CC [NF54] | 2 160 000 000 RLU/mg | the most efficient | significantly improved delivery of mRNA over NF55 | delivered mRNA into the spleen in vivo with high efficacy | good improvement in mRNA delivery in vivo over NF55 | 225 675 RLU |  |
| CCCCCCCCCCCCCCCCCCCC(=O)N[C@@H](C)C(=O)NCC(=O)N[C@@H](Cc1ccc(O)cc1)C(=O)N[C@@H](CC(C)C)C(=O)N[C@@H](CC(C)C)C(=O)NCC(=O)NCCC[C@H](N)C(=O)N[C@H](C(=O)N[C@@H](CC(N)=O)C(=O)N[C@@H](CC(C)C)C(=O)N[C@@H](CCCCN)C(=O)N[C@@H](C)C(=O)N[C@@H](CC(C)C)C(=O)N[C@@H](C)C(=O)N[C@@H](C)C(=O)N[C@@H](CC(C)C)C(=O)N[C@@H](C)C(=O)N[C@@H](CCCCN)C(=O)N[C@@H](C)C(=O)N[C@H](C(=O)N[C@@H](CC(C)C)C(N)=O)[C@@H](C)CC)[C@@H](C)CC [NF410] | 1 080 000 000 RLU/mg | the most efficient |  |  |  | 36 670 RLU |  |
| CCCCCCCCCCCCCCCCCCCCCC(=O)N[C@@H](C)C(=O)NCC(=O)N[C@@H](Cc1ccc(O)cc1)C(=O)N[C@@H](CC(C)C)C(=O)N[C@@H](CC(C)C)C(=O)NCC(=O)NCCC[C@H](N)C(=O)N[C@H](C(=O)N[C@@H](CC(N)=O)C(=O)N[C@@H](CC(C)C)C(=O)N[C@@H](CCCCN)C(=O)N[C@@H](C)C(=O)N[C@@H](CC(C)C)C(=O)N[C@@H](C)C(=O)N[C@@H](C)C(=O)N[C@@H](CC(C)C)C(=O)N[C@@H](C)C(=O)N[C@@H](CCCCN)C(=O)N[C@@H](C)C(=O)N[C@H](C(=O)N[C@@H](CC(C)C)C(N)=O)[C@@H](C)CC)[C@@H](C)CC [NF411] | 2 090 000 000 RLU/mg | the most efficient | good improvement in delivery of mRNA over NF55 | delivered mRNA into the spleen in vivo with high efficacy |  | 161 716 RLU | equivalent delivery of mRNA to NF54 |
| CCCCCCCCCCCCCCCCCCCC(=O)N[C@@H](C)C(=O)NCC(=O)N[C@@H](Cc1ccc(O)cc1)C(=O)N[C@@H](CC(C)C)C(=O)N[C@@H](CC(C)C)C(=O)NCC(=O)NCCCC[C@H](N)C(=O)N[C@H](C(=O)N[C@@H](CC(N)=O)C(=O)N[C@@H](CC(C)C)C(=O)N[C@@H](CCCCN)C(=O)N[C@@H](C)C(=O)N[C@@H](CC(C)C)C(=O)N[C@@H](C)C(=O)N[C@@H](C)C(=O)N[C@@H](CC(C)C)C(=O)N[C@@H](C)C(=O)N[C@@H](CCCCN)C(=O)N[C@@H](C)C(=O)N[C@H](C(=O)N[C@@H](CC(C)C)C(N)=O)[C@@H](C)CC)[C@@H](C)CC [NF412] (I: H-KINLKALAALAKAIL-NH2 / II: Arachidoyl-AGYLLG; amide I:1-II:C) | 393 000 000 RLU/mg |  |  |  |  | 36 759 RLU |  |
| CCCCCCCCCCCCCCCCCCCCCC(=O)N[C@@H](C)C(=O)NCC(=O)N[C@@H](Cc1ccc(O)cc1)C(=O)N[C@@H](CC(C)C)C(=O)N[C@@H](CC(C)C)C(=O)NCC(=O)NCCCC[C@H](N)C(=O)N[C@H](C(=O)N[C@@H](CC(N)=O)C(=O)N[C@@H](CC(C)C)C(=O)N[C@@H](CCCCN)C(=O)N[C@@H](C)C(=O)N[C@@H](CC(C)C)C(=O)N[C@@H](C)C(=O)N[C@@H](C)C(=O)N[C@@H](CC(C)C)C(=O)N[C@@H](C)C(=O)N[C@@H](CCCCN)C(=O)N[C@@H](C)C(=O)N[C@H](C(=O)N[C@@H](CC(C)C)C(N)=O)[C@@H](C)CC)[C@@H](C)CC [NF413] (I: H-KINLKALAALAKAIL-NH2 / II: Docosanoyl-AGYLLG; amide I:1-II:C) | 678 000 000 RLU/mg |  |  |  |  | 50 495 RLU |  |
| CCCCCCCCCCCCCCCC(=O)N[C@@H](C)C(=O)NCC(=O)N[C@@H](Cc1ccc(O)cc1)C(=O)N[C@@H](CC(C)C)C(=O)N[C@@H](CC(C)C)C(=O)NCC(=O)NCC[C@H](N)C(=O)N[C@H](C(=O)N[C@@H](CC(N)=O)C(=O)N[C@@H](CC(C)C)C(=O)N[C@@H](CCCCN)C(=O)N[C@@H](C)C(=O)N[C@@H](CC(C)C)C(=O)N[C@@H](C)C(=O)N[C@@H](C)C(=O)N[C@@H](CC(C)C)C(=O)N[C@@H](C)C(=O)N[C@@H](CCCCN)C(=O)N[C@@H](C)C(=O)N[C@H](C(=O)N[C@@H](CC(C)C)C(N)=O)[C@@H](C)CC)[C@@H](C)CC [NF422] | 159 000 000 RLU/mg |  |  |  |  |  |  |
| CCCCCCCCCCCCCCCCCCCCCC(=O)N[C@@H](C)C(=O)NCC(=O)N[C@@H](Cc1ccc(O)cc1)C(=O)N[C@@H](CC(C)C)C(=O)N[C@@H](CC(C)C)C(=O)NCC(=O)NCC[C@H](N)C(=O)N[C@H](C(=O)N[C@@H](CC(N)=O)C(=O)N[C@@H](CC(C)C)C(=O)N[C@@H](CCCCN)C(=O)N[C@@H](C)C(=O)N[C@@H](CC(C)C)C(=O)N[C@@H](C)C(=O)N[C@@H](C)C(=O)N[C@@H](CC(C)C)C(=O)N[C@@H](C)C(=O)N[C@@H](CCCCN)C(=O)N[C@@H](C)C(=O)N[C@H](C(=O)N[C@@H](CC(C)C)C(N)=O)[C@@H](C)CC)[C@@H](C)CC [NF423] | 556 000 000 RLU/mg |  |  |  |  |  |  |
| NF72: SEQ ID NO: 15; HHHHHHYHHGO*ILLKALKALAKAIL; control/comparator construct [reference compound] | 78 023 RLU/mg |  |  |  |  |  |  |
